In patent publication US5441956A, “Hydroisoquinoline derivatives” (Smithkline Beecham Farmaceutici S.p.A., priority 1991, dated 1995):
Where a name gives a salt, the structure may show the parent alone.

Columns and labels:
[1] = molecular target: T1, κ opioid receptor (kappa sites) (Cavia porcellus, UniProt P41144); assay: Binding to kappa sites (3H-BRL 52537A); conditions: guinea pig brain homogenate, 40 min at 25° C.
T1 construct: performed on fresh guinea pig brain homogenates; from tissue; host or cells: guinea pig whole brain without cerebellum, washed membrane homogenate
T1 sequence (P41144 whole entry): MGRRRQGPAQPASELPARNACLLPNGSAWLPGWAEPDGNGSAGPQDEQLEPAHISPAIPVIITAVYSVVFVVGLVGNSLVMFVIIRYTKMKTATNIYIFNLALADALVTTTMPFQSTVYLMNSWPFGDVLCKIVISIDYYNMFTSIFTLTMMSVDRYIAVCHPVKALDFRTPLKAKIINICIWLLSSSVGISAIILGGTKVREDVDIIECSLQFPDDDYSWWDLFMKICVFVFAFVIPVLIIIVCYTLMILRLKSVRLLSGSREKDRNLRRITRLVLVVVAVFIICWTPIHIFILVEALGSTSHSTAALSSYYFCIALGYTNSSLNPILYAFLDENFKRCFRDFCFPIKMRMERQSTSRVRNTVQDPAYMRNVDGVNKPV
Description: (§1) Radio receptor binding to delta, mu and kappa sites is performed on fresh guinea pig brain homogenates prepared according to Kosterlitz (1981). Whole brain, without cerebellum is homogenized in 50 mM Tris-buffer and centrifuged at 49,000×g for 10 min.
(§2) The pellet is then resuspended in the s3me buffer, incubated at 37° C. for 45 min. and centrifuged again.
(§3) 1.9 ml of the final homogenate (1:100 in Tris-pH 7.4 0° C.) is used for the binding assay.
Final homogenate with solutions of the cold ligand and of the labelled ligand is incubated for 40 min. at 25° C., filtered through Whatman GF-C glass filter discs and washed. The radioactivity bound to the filters is counted by liquid scintillation spectrophotometry.

[2] = system: mice (Male Charles River, Swiss Strain); assay: Antinociception, tail-flick test in mice; assay type: in vivo, mouse; conditions: i.t., 10 min pretreatment
Description: The methodology employed is based on that described by D'Amour and Smith, J. Pharmacol. Exp. Ther. 72, 74 (1941).
Male Charles River mice (Swiss Strain) 29-35 g body weight are used.
Animals are allowed food and water ad libitum and are randomized into groups of 10 prior to experimentation.
Test compounds are dissolved in either distilled water or distilled water plus 0.1M AMS and administered by the intrathecal route in a final volume of 5 μl/mouse, according to the method described by Hylden and Wilcox, Eur. J. Pharmacol. 67,313 (1980).
Four hours prior the beginning of experiments, mice are anaesthetized with pentobarbital (80 mg/Kg i.p.) and a caudal cutaneous incision (1 cm) is performed on the back using a disposable 30 gauge 1/2 inch needles mated to a 50 μl luer siringe (Hamilton). The drug are delivered intrathecally between L5 and L6 of spinous process.
Control animals receive […] of the appropriate vehicle alone. Following a pretreatment period of 10 min., the mice are again placed under the heat source and the reaction time redetermined.
Percentage quantal protection is determined as the number of mice in which the reaction time is doubled compared to pretreatment values, expressed as a percentage of the total number of mice in the group.

[3] = molecular target: T2, μ opioid receptor (mu sites) (Cavia porcellus, UniProt A0ACM8Q262); assay: Binding to mu sites (3H-DAGO); conditions: guinea pig brain homogenate, 40 min at 25° C.
T2 construct: 3H-DAGO (DAMGO) displacement
T2 sequence (A0ACM8Q262 1-400): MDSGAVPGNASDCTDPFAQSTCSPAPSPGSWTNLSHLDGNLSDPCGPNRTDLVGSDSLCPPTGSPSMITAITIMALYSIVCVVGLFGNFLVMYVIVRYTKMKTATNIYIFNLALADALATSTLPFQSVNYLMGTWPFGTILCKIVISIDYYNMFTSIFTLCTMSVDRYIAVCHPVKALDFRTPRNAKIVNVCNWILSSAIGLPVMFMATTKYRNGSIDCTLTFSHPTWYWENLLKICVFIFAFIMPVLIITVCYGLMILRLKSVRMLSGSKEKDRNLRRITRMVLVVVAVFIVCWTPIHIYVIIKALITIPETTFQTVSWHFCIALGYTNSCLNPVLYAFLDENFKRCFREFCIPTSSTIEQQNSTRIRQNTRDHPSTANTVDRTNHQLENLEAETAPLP
Description: as §1, §2, §3
Binding to mu sites (Magnan J., 1982)
^3 H-[D-Ala^2, MePhe^4, Gly-Ol^5 ]Enkephalin (^3 H-DAGO), an enkephalin analogue that binds selectively to mu receptor, is added to the biological substrate and incubated at 25° C. for 40 min, filtered through Whatman GF-C filters and washed with ice-cold Tris buffer. The filters are then dried, solubilized in Filtercount and the radioactivity monitored. Non-specific binding is determined in the presence of 10^-6 M naloxone.

[4] = molecular target: T3, δ opioid receptor (delta sites) (Cavia porcellus, UniProt A0A286XTF2); assay: Binding to delta sites (radioreceptor binding, 3H-DADLE with unlabelled DAGO); conditions: guinea pig brain homogenate, 3H-DADLE + 30 nM DAGO, 40 min at 25° C.
T3 construct: performed on fresh guinea pig brain homogenates; from tissue; host or cells: guinea pig whole brain without cerebellum, washed membrane homogenate
T3 sequence (A0A286XTF2 1-366): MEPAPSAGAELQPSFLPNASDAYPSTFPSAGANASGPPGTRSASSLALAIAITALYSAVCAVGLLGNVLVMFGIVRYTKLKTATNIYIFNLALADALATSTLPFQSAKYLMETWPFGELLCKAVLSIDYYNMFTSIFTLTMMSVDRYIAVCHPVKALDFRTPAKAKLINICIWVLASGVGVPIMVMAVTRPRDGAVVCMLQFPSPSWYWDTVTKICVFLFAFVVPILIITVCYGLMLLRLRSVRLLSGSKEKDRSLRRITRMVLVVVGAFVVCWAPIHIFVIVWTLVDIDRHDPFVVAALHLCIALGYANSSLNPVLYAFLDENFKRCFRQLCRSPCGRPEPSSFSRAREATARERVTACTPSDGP
Description: as §1, §2, §3
For binding experiments, ^3 H-DADLE, which binds to mu and delta sites, is used in the presence of 30 nM of unlabelled DAGO to prevent mu binding. A concentration of radioligand near KD is used in the binding assays evaluating compounds of the invention. Non-specific binding is determined by addition of Mr 2266, 2.5 μM. The tubes are incubated for 40 min at 25° C. and bound ligand is separated from free by filtration through Whatman GF-G filters. The level of bound radioactivity on the filters is measured by liquid scintillation after solubilization in filtercount. The equilibrium dissociation constant (KD) and the maximum binding capacity (Bmax) are determined from the analysis of saturation curves, while the inhibition constant (Ki) is determined from the analysis of competition experiments (Hill 1910; Scatchard 1949; Cheng and Prusoff 973; Gillan et al 1980).

**Q.** `CCN1CC[C@]2(c3cccc(O)c3)Cc3[nH]c4ccccc4c3C[C@H]2C1` (relative stereo) [Example 1, 2-ethyl-4aα-(3-hydroxyphenyl)-1,2,3,4,4a,5,11,11aβ-octahydro indolo[2,3-g]isoquinoline hydrochloride] was tested. Which Ki [1] did it give?
**A.** > 1000 nM

**Q.** What about the “Antinociception Mouse Tail-Flick ED50” value [2] of the same compound?
**A.** 0.010 mg/mouse

**Q.** What about the Ki [3] of the same compound?
**A.** 2070 nM

**Q.** And the Ki [4]?
**A.** 16.4 nM

**Q.** Which Ki [1] does the source give for `CN1CC[C@]2(c3cccc(O)c3)Cc3[nH]c4ccccc4c3C[C@H]2C1` (relative stereo) [Example 5, 2-Methyl-4aα-(3-hydroxyphenyl)-1,2,3,4,4a,5,11,11aβ-octahydroindolo[2,3-g]isoquinoline hydrochloride] here?
**A.** > 1000 nM

**Q.** And the Ki [3]?
**A.** 309 nM

**Q.** What about the Ki [4] of the same compound?
**A.** 16 nM

**Q.** What does the source list for `CN1CC[C@]2(c3cccc(O)c3)Cc3c(c4ccccc4n3C)C[C@H]2C1` (relative stereo) [Example 7, 2,6-Dimethyl-4aα-(3-hydroxyphenyl)-1,2,3,4,4a,5,11,11aβ-octahydroindolo[2,3-g]isoquinoline]?
**A.** Ki [1]: > 1000 nM; Ki [3]: 306 nM; Ki [4]: 33.6 nM

**Q.** Which Ki [1] does the source give for `CN1CC[C@]2(c3cccc(O)c3)Cc3oc4ccccc4c3C[C@H]2C1` (relative stereo) [Example 10, 2-Methyl-4aα-(3-hydroxyphenyl)-1,2,3,4,4a,5, 11, 11aβ-octahydrobenzofuro[2,3-g]isoquinoline] here?
**A.** > 1000 nM

**Q.** And the Ki [3]?
**A.** 104 nM

**Q.** What about the Ki [4] of the same compound?
**A.** 10.1 nM

**Q.** What does the source list for `Cc1ccc2[nH]c3c(c2c1)C[C@H]1CN(C)CC[C@]1(c1cccc(O)c1)C3` (relative stereo) [Example 12, 2,9-Dimethyl-4aα-(3-hydroxyphenyl)-1,2,3,4,4a,5,11,11aβ-octahydroindolo[2,3-g]isoquinoline]?
**A.** Ki [1]: > 1000 nM; Ki [3]: 678 nM; Ki [4]: 61.9 nM

**Q.** `CN1CC[C@]2(c3cccc(O)c3)Cc3[nH]c4c(Cl)cccc4c3C[C@H]2C1` (relative stereo) [Example 16, 2-Methyl-4aα-(3-hydroxyphenyl)-7-chloro-1,2,3,4,4a,5,11,11aβ-octahydroindolo[2,3-g]isoquinoline] was tested. Which Ki [1] did it give?
**A.** > 1000 nM

**Q.** And the Ki [3]?
**A.** 568 nM

**Q.** What about the Ki [4] of the same compound?
**A.** 16.4 nM

**Q.** `CCN1CC[C@]2(c3cccc(O)c3)Cc3[nH]c4ccccc4c3C[C@H]2C1` (single isomer, unassigned) [Example 39, (+)-2-Ethyl-4aα-(3-hydroxyphenyl)-1,2,3,4,4a,5,11,11aβ-octahydroindolo[2,3-g]isoquinoline hydrochloride] was tested. Which Ki [1] did it give?
**A.** > 1000 nM

**Q.** What about the Ki [3] of the same compound?
**A.** 2260 nM

**Q.** And the Ki [4]?
**A.** 6.24 nM
